Where a SMILES comes first, the peptide text is derived from it. [ ]: non-standard residue; d: D form. dPhe(4-Cl) = N[C@H](Cc1ccc(Cl)cc1)C(=O)O; Dpg = CCCC(N)(CCC)C(=O)O; Aib = CC(C)(N)C(=O)O
Tests used:
Type in all cases: cell-based, human
Settings in all cases: 72 hours
[1] = system: U87MG (glioblastoma); test: MTT cytotoxicity assay, U87MG cells
Experimental: (§1) The cytotoxic activity of synthesized peptides was tested on […] human tumor cell lines namely PA-1 (ovary), SW620 (colon) HuTu80 (duodenum), L132 (lung), U87MG (glioblastoma), KB (oral), MIAPaCa2(pancreas), A549(non small cell lung) and HT-29(colon). The tumor cells were collected at exponential growth phase and resuspended in medium (1.5×10^6 cells/ml in RPMI 1640 containing 10% FBS). 150 μl of medium was added to the wells of a 96-well tissue culture plate (Nunc, Denmark) followed by 30 μl of cell suspension. The plate was left in incubator (37° C., 5% CO2) overnight. 20 μl of the peptide (100 pM to 1 uM concentration) was added to marked wells of the 96-well plate. Each concentration was plated in triplicates. 20 μl of medium alone was added to control wells while wells without cells served as blanks. A total volume of 200 μl was ensured in each well and plate was left in incubator (37° C., 5% CO2). After 72 hours of incubation an MTT assay was performed and percentage cytotoxicity was calculated with respect to control cells. Following Tables show the maximum cytotoxicity achieved on various cell lines.

[2] = system: SW620 (colon); test: MTT cytotoxicity assay, SW620 cells
Experimental: as §1

[3] = system: HuTu80 (duodenum); test: MTT cytotoxicity assay, HuTu80 cells
Experimental: as §1

[4] = system: PA-1 (ovary); test: MTT cytotoxicity assay, PA-1 cells
Experimental: as §1

[5] = system: L132 (lung); test: MTT cytotoxicity assay, L132 cells
Experimental: as §1

[6] = system: KB (oral); test: MTT cytotoxicity assay, KB cells
Experimental: as §1

[7] = system: HT-29(colon); test: MTT cytotoxicity assay, HT-29 cells
Experimental: as §1

[8] = system: A549(non small cell lung); test: MTT cytotoxicity assay, A549 cells
Experimental: as §1

[9] = system: MIAPaCa2(pancreas); test: MTT cytotoxicity assay, MIAPaCa2 cells
Experimental: as §1

SMILES: CCCC(CCC)(NC(=O)[C@H](CCC(N)=O)NC(=O)[C@H](CCCCN)NC(=O)[C@H](CCCNC(=N)N)NC(=O)[C@H](CC(C)C)NC(=O)[C@H](CCCNC(=N)N)NC(=O)[C@@H](NC(=O)[C@H](Cc1ccc(O)cc1)NC(=O)[C@H](CC(N)=O)NC(=O)[C@H](CC(=O)O)NC(=O)[C@@H](NC(=O)[C@@H](Cc1ccc(Cl)cc1)NC(=O)[C@@H](NC(=O)C(C)(C)NC(=O)[C@H](CC(=O)O)NC(=O)[C@H](CO)NC(=O)[C@@H](N)Cc1c[nH]cn1)C(C)C)[C@@H](C)O)[C@@H](C)O)C(=O)N[C@@H](C)C(=O)N[C@H](C(=O)N[C@@H](CCCCN)C(=O)N[C@@H](CCCCN)C(=O)N[C@@H](Cc1ccc(O)cc1)C(=O)N[C@@H](CC(C)C)C(=O)N[C@@H](CC(N)=O)C(=O)N[C@@H](CO)C(=O)N[C@H](C(=O)N[C@@H](CC(C)C)C(=O)N[C@@H](CC(N)=O)C(N)=O)[C@@H](C)CC)C(C)C [SEQ ID NO: 10, His-Ser-Asp-Aib-Val-4-Cl-D-Phe-Thr-Asp-Asn-Tyr-Thr-Arg-Leu-Arg-Lys-Gln-Dpg-Ala-Val-Lys-Lys-Tyr-Leu-Asn-Ser-Ile-Leu-Asn-NH2] (H-HSD[Aib]V[dPhe(4-Cl)]TDNYTRLRKQ[Dpg]AVKKYLNSILN-NH2)
- Percentage cytotoxicity ([1]; 100 pM): 12 ± 5.0%
- Percentage cytotoxicity ([1]; 1 nM): 16 ± 7.8%
- Percentage cytotoxicity ([1]; 10 nM): 30.1 ± 4.0%
- Percentage cytotoxicity ([1]; 100 nM): 29 ± 7.0%
- Percentage cytotoxicity ([1]; 1 μM): 29 ± 4.0%
- Percentage cytotoxicity ([2]; SW620, 100 pM): 17 ± 4.0%
- Percentage cytotoxicity ([2]; SW620, 1 nM): 30 ± 6.5%
- Percentage cytotoxicity ([2]; SW620, 10 nM): 29 ± 5.0%
- Percentage cytotoxicity ([2]; SW620, 100 nM): 24 ± 7.3%
- Percentage cytotoxicity ([2]; SW620, 1 μM): 16 ± 5.5%
- Percentage cytotoxicity ([3]; HuTu80, 100 pM): 15 ± 7.8%
- Percentage cytotoxicity ([3]; HuTu80, 1 nM): 31 ± 7.0%
- Percentage cytotoxicity ([3]; HuTu80, 10 nM): 28 ± 5.0%
- Percentage cytotoxicity ([3]; HuTu80, 100 nM): 28 ± 8.0%
- Percentage cytotoxicity ([3]; HuTu80, 1 μM): 16 ± 4.5%
- Percentage cytotoxicity ([4]; PA1, 100 pM): 28 ± 0.0%
- Percentage cytotoxicity ([4]; PA1, 1 nM): 31 ± 6.0%
- Percentage cytotoxicity ([4]; PA1, 10 nM): 26 ± 3.0%
- Percentage cytotoxicity ([4]; PA1, 100 nM): 25 ± 5.0%
- Percentage cytotoxicity ([4]; PA1, 1 μM): 23 ± 6.5%
- Percentage cytotoxicity ([5]; L132, 100 pM): 15 ± 7.0%
- Percentage cytotoxicity ([5]; L132, 1 nM): 28 ± 6.0%
- Percentage cytotoxicity ([5]; L132, 10 nM): 31 ± 6.0%
- Percentage cytotoxicity ([5]; L132, 100 nM): 29 ± 5.5%
- Percentage cytotoxicity ([5]; L132, 1 μM): 17 ± 5.0%
- Percentage cytotoxicity ([6]; 100 pM): 12 ± 8.0%
- Percentage cytotoxicity ([6]; 1 nM): 32 ± 7.8%
- Percentage cytotoxicity ([6]; 10 nM): 26 ± 7.8%
- Percentage cytotoxicity ([6]; 100 nM): 27 ± 6.0%
- Percentage cytotoxicity ([6]; 1 μM): 30 ± 5.0%

SMILES: CC[C@H](C)[C@H](NC(=O)[C@H](CO)NC(=O)[C@H](CC(N)=O)NC(=O)[C@H](CC(C)C)NC(=O)[C@H](Cc1ccc(O)cc1)NC(=O)[C@H](CCCCN)NC(=O)[C@H](CCCCN)NC(=O)[C@@H](NC(=O)[C@H](C)NC(=O)[C@H](CC(C)C)NC(=O)[C@H](CCC(N)=O)NC(=O)[C@H](CCCCN)NC(=O)[C@H](CCCNC(=N)N)NC(=O)[C@H](CC(C)C)NC(=O)[C@H](CCCNC(=N)N)NC(=O)[C@@H](NC(=O)[C@H](Cc1ccc(O)cc1)NC(=O)[C@H](CC(N)=O)NC(=O)[C@H](CC(=O)O)NC(=O)[C@@H](NC(=O)[C@@H](Cc1ccc(Cl)cc1)NC(=O)[C@@H](NC(=O)C(C)(C)NC(=O)[C@H](CC(=O)O)NC(=O)[C@H](CO)NC(=O)[C@@H](N)Cc1c[nH]cn1)C(C)C)[C@@H](C)O)[C@@H](C)O)C(C)C)C(=O)N[C@@H](CC(C)C)C(=O)N[C@@H](CC(N)=O)C(N)=O [SEQ ID NO: 2] (H-HSD[Aib]V[dPhe(4-Cl)]TDNYTRLRKQLAVKKYLNSILN-NH2)
- Percentage cytotoxicity ([7]; HT29, 100 pM): 26 ± 5.5%
- Percentage cytotoxicity ([7]; HT29, 1 nM): 25 ± 4.5%
- Percentage cytotoxicity ([7]; HT29, 10 nM): 25 ± 4.5%
- Percentage cytotoxicity ([7]; HT29, 100 nM): 30 ± 5.8%
- Percentage cytotoxicity ([7]; HT29, 1 μM): 38 ± 5.5%
- Percentage cytotoxicity ([1]; 100 pM): 10.5 ± 4.5%
- Percentage cytotoxicity ([1]; 1 nM): 12 ± 7.6%
- Percentage cytotoxicity ([1]; 10 nM): 28.9 ± 5.6%
- Percentage cytotoxicity ([1]; 100 nM): 19.0 ± 7.0%
- Percentage cytotoxicity ([1]; 1 μM): 14 ± 4.5%
- Percentage cytotoxicity ([2]; SW620, 100 pM): 16.9 ± 4.5%
- Percentage cytotoxicity ([2]; SW620, 1 nM): 28 ± 6.6%
- Percentage cytotoxicity ([2]; SW620, 10 nM): 30 ± 4.5%
- Percentage cytotoxicity ([2]; SW620, 100 nM): 23 ± 3.8%
- Percentage cytotoxicity ([2]; SW620, 1 μM): 18.5 ± 5.1%
- Percentage cytotoxicity ([3]; HuTu80, 100 pM): 10 ± 3.5%
- Percentage cytotoxicity ([3]; HuTu80, 1 nM): 20 ± 5.5%
- Percentage cytotoxicity ([3]; HuTu80, 10 nM): 18 ± 4.5%
- Percentage cytotoxicity ([3]; HuTu80, 100 nM): 24 ± 5.6%
- Percentage cytotoxicity ([3]; HuTu80, 1 μM): 39 ± 4.5%
- Percentage cytotoxicity ([4]; PA1, 100 pM): 16 ± 3.3%
- Percentage cytotoxicity ([4]; PA1, 1 nM): 30.0 ± 6.7%
- Percentage cytotoxicity ([4]; PA1, 10 nM): 28.9 ± 5.5%
- Percentage cytotoxicity ([4]; PA1, 100 nM): 18.9 ± 4.2%
- Percentage cytotoxicity ([4]; PA1, 1 μM): 16.5 ± 3.4%
- Percentage cytotoxicity ([8]; A549, 100 pM): 16 ± 5.5%
- Percentage cytotoxicity ([8]; A549, 1 nM): 19 ± 4.5%
- Percentage cytotoxicity ([8]; A549, 10 nM): 21 ± 5.5%
- Percentage cytotoxicity ([8]; A549, 100 nM): 41 ± 6.0%
- Percentage cytotoxicity ([8]; A549, 1 μM): 45 ± 5.5%
- Percentage cytotoxicity ([5]; L132, 100 pM): 18 ± 2.3%
- Percentage cytotoxicity ([5]; L132, 1 nM): 28 ± 4.5%
- Percentage cytotoxicity ([5]; L132, 10 nM): 30.9 ± 7.0%
- Percentage cytotoxicity ([5]; L132, 100 nM): 18.9 ± 5.0%
- Percentage cytotoxicity ([5]; L132, 1 μM): 15.9 ± 7.5%
- Percentage cytotoxicity ([6]; 100 pM): 47 ± 8.5%
- Percentage cytotoxicity ([6]; 1 nM): 42 ± 8.0%
- Percentage cytotoxicity ([6]; 10 nM): 34 ± 6.0%
- Percentage cytotoxicity ([6]; 100 nM): 37 ± 5.0%
- Percentage cytotoxicity ([6]; 1 μM): 43 ± 0.5%
- Percentage cytotoxicity ([9]; MIAPaCa2, 100 pM): 20 ± 6.5%
- Percentage cytotoxicity ([9]; MIAPaCa2, 1 nM): 31 ± 5.0%
- Percentage cytotoxicity ([9]; MIAPaCa2, 10 nM): 35 ± 3.5%
- Percentage cytotoxicity ([9]; MIAPaCa2, 100 nM): 32 ± 4.5%
- Percentage cytotoxicity ([9]; MIAPaCa2, 1 μM): 36 ± 0.5%
